This is an account of results in patent US6835731B2, “Chemokine receptor binding heterocyclic compounds” (AnorMED, Inc., priority 2000, dated 2004).

SMILES strings stand for the structures.

Format in all cases: cell-based
Assay [1] deals with HIV-1 NL4.3 (or IIIB, CXCR4 using). The assay can be described thus: Inhibition of HIV-1 (NL4.3) replication in MT-4 cells. The conditions noted are these: Human immunodeficiency virus 1, IIIB, MT4, 120 h, MTT viability after 5 days. Here is the method:
Assay for Inhibition of HIV-1 (NL4.3) Replication in MT-4 Cells. Inhibition of HIV-1 NL4.3 (or IIIB, CXCR4 using) replication assays were performed as previously described (Bridger et al. J. Med. Chem. 1999, 42, 3971-3981; De […] et al. Proc. Natl. Acad. Sci, 1992, 89, 5286-5290; De […] et al. Antimicrob. Agents Chemother. 1994, 38, 668-674; Bridger et al. J. Med. Chem. 1995, 38, 366-378; Schols et al. J. Exp. Med., 1997, 186, 1383-1388). Anti-HIV activity and cytotoxicity measurements were carried out in parallel. They were based on the viability of MT-4 cells that had been infected with HIV in the presence of various concentrations of the test compounds. After the MT-4 cells were allowed to proliferate for 5 days, the number of viable cells was quantified by a tetrazolium-based colorimetric 3-(4,5-dimethylthiazol-2-yl)-2,5-diphenyltetrazolium bromide (MTT) procedure in 96-well microtrays. In all of these assays, viral input (viral multiplicity of infection, MOI) was 0.01, or 100 times the 50% cell culture infective dose (CCID50). The EC50 was defined as the concentration required to protect 50% of the virus-infected cells against viral cytopathicity. When compounds of the current invention are tested for inhibition of HIV-1 NL4.3 or IIIB replication in MT-4 cells, all show inhibition.

Assay [2] concerns SDF-1α induced Ca flux in SUP-T1 cells. As to the kind of experiment: Inhibition of chemokine (SDF-1α) induced Ca flux measured on a FLIPR. The note with it: Homo sapiens, at 20 μg/mL. Here is the method:
Inhibition of Chemokine Induced Ca Flux Measured on a FLIPR (Molecular Devices) Loading dye: Fluo-3, AM (Molecular Probes F-1241) is dissolved in anhydrous DMSO and stored frozen in aliquots. To increase the solubility of the dye in the loading medium, 10% (w/v) pluronic acid (Molecular Probes F-127) is added to the Fluo-3 stock solution immediately before use. buffer+0.2% BSA, pH 7.4. HBSS 10× [(w/o phenol red and sodium bicarbonate (Gibco 14 065-049)]; Hepes buffer 1M (Gibco 15 630-056), BSA (Sigma A3675). The flux buffer is vacuum-filtered and stored refrigerated for a maximum of 5 days. Before use in the experiment, the buffer is warmed at 37° C. in a waterbath. The test compounds were diluted in flux buffer at the desired concentration and added to 4 wells of a black microplate (4 parallel measurements per compound). The following control wells were used: 100% response control (no inhibition), flux buffer was added; 100% inhibition control: chemokine was added at 5-times the concentration required to induce a Ca flux. The chemokines are diluted in flux buffer to concentrations that are 4-fold higher than the desired concentrations required for stimulation of the cells (i.e. 2.5 nM for SDF-1α and 0.6 nM for RANTES). The chemokines were added to untreated 96-well Sero well compound plates (International Medical, Sterilin code 611F96). In the negative control well's (baseline monitoring), flux buffer is added instead of chemokine. As a positive control to check for dye loading efficiency, 20 μM digitonin (final concentration) was also included. The agonist plate was incubated in the FLIPR (37° C.) for 15-30 min. Cell Loading Protocol for Measuring Inhibition of SDF-1α Induced Ca Flux in SUP-T1 Cells. SUP-T1 cells were centrifuged at room temperature (RT) and re-suspended in loading medium (RPMI-1640 containing 2% FBS and 4 μM Fluo-3, AM). The cells were incubate at room temperature for 45 min. then washed twice in flux buffer then incubated in flux buffer at room temperature for 10 min. The cells were centrifuged and re-suspended in flux buffer at a density of 3×10^6 cells per mL. A 100 μL aliquot of the cell suspension (3×10^5 cells) was added to each well of a black microplate (Costar 3603), which already contains 50 μL of a solution of the test compound (at concentrations that are 3-fold higher than the desired final compound concentrations). The microplate is then gently centrifuged at room temperature. Homogeneous spreading of the cells on the bottom of the microplate wells was then confirmed with a microscope and the microplate was incubated in the FLIPR (37° C.) for 10 min. prior to testing. The FLIPR settings (camera exposure time and laser power) are adjusted to obtain initial fluorescence values between 8,000 and 10,000 units. After monitoring a 20 second-baseline, the agonist (chemokine) (50 μL) is added by automatic pipettor with black pipette tips. Fluorescence is measured simultaneously in all wells of the microplate every 2 seconds (first 2 min) and thereafter every 6 seconds (additional 2 min). The average ca-flux measured in each set of 4 identical wells (one test compound) was calculated by the FLIPR software. The compounds of the current invention are tested for inhibition of SDF-1α induced Ca flux in SUP-T1 cells using the method described above.

For another assay, the system named is HIV-1 BaL (CCR5 using). As to the kind of experiment: Inhibition of HIV-1 (BaL) replication in PBMC's. The conditions noted are these: Human immunodeficiency virus 1, BAL, PHA-stimulated PBMC's, viral p24 antigen expression. Here is the method:
Assay for Inhibition of HIV-1 (BaL) Replication in PBMC's. When compounds of the current invention are tested for inhibition of HIV-1 BaL (CCR5 using) replication in PHA-stimulated PBMC's (peripheral blood mononuclear cells) using viral p24 antigen expression (De […] et al. Antimicrob. Agents Chemother. 1994, 38, 668-674; Schols et al. J. Exp. Med., 1997, 186, 1383-1388), all show inhibition.

Consider `O=C(NCc1ccc(CN(Cc2nc3ccccc3[nH]2)C2CCCc3cccnc32)cc1)c1ccccn1` (centres unmarked) [Example 17, Pyridine-2-carboxylic Acid 4-{[(1 H-benzimidazol-2-ylmethyl)-(5,6,7,8-tetrahydro-quinolin-8-yl)-amino]-methyl}-benzylamide], for which the EC50 (in assay [1]; in the assay with HIV-1 BaL (CCR5 using)) was less than 20 µg/mL throughout. In assay [2], this molecule yielded an inhibition at 20 µg/mL greater than 20%.
Regarding `O=C(NCc1ccccn1)c1ccc(CN(Cc2nc3ccccc3[nH]2)C2CCCc3cccnc32)cc1` (centres unmarked) [Example 4, 4-{[(1 H-Benzimidazol-2-ylmethyl)-(5,6,7,8-tetrahydro-quinolin-8-yl)-amino]-methyl}-N-pyridin-2-ylmethyl-benzamide], the EC50 (in assay [1]; in the assay on HIV-1 BaL (CCR5 using)) was less than 20 µg/mL each time. The molecule also returned an inhibition at 20 µg/mL in assay [2] greater than 20%.
With `O=S(=O)(NCc1ccc(CN(Cc2nc3ccccc3[nH]2)C2CCCc3cccnc32)cc1)c1ccccn1` (centres unmarked) [Example 48, Pyridine-2-sulfonic Acid 4-{[(1 H-benzoimidazol-2-ylmethyl)-(5,6,7,8-tetrahydro-quinolin-8-yl)-amino]-methyl}-benzylamide], the EC50 (in assay [1]; in the assay on HIV-1 BaL (CCR5 using)) was less than 20 µg/mL throughout. The inhibition at 20 µg/mL in assay [2] is greater than 20%.
As for `O=S(=O)(Nc1ccc(CN(Cc2nc3ccccc3[nH]2)C2CCCc3cccnc32)cc1)c1ccccn1` (centres unmarked) [Example 53, Pyridine-2-sulfonic acid (4-{[(1H-benzoimidazol-2-ylmethyl)-(5,6,7,8-tetrahydro-quinolin-8-yl)-amino]-methyl}-phenyl)-amide], the EC50 (in assay [1]; in the assay on HIV-1 BaL (CCR5 using)) was less than 20 µg/mL in each case.
Turning to `O=S(=O)(NCc1ccccn1)c1ccc(CN(Cc2nc3ccccc3[nH]2)C2CCCc3cccnc32)cc1` (centres unmarked) [Example 11, 4-{[(1 H-Benzimidazol-2-ylmethyl)-(5,6,7,8-tetrahydro-quinolin-8-yl)-amino]-methyl}-N-pyridin-2-ylmethyl-benzenesulfonamide], the EC50 (in assay [1]; in the assay on HIV-1 BaL (CCR5 using)) was less than 20 µg/mL in each case. In assay [2], this molecule came in with an inhibition at 20 µg/mL greater than 20%.
Turning to `O=C(Nc1ccccn1)c1ccc(CN(Cc2nc3ccccc3[nH]2)C2CCCc3cccnc32)cc1` (centres unmarked) [Example 2, 4-{[(1 H-Benzimidazol-2-ylmethyl)-(5,6,7,8-tetrahydroquinolin-8-yl)amino]-methyl}-N-pyridin-2-yl-benzamide], the EC50 (in assay [1]; in the assay on HIV-1 BaL (CCR5 using)) was less than 20 µg/mL each time. For the same molecule, in assay [2], the inhibition at 20 µg/mL was greater than 20%.
`O=C(NCc1ccc(CNC2CCCc3cccnc32)cc1)c1ccccn1` (centres unmarked) [Example 16, Pyridine-2-carboxylic acid 4-[(5,6,7,8-tetrahydro-quinolin-8-ylamino)-methyl]-benzeylamide] gave an EC50 in the assay on HIV-1 BaL (CCR5 using) of less than 20 µg/mL.
`O=C(Nc1ccc(CN(Cc2nc3ccccc3[nH]2)C2CCCc3cccnc32)cc1)c1ccccn1` (centres unmarked) [Example 45, pyridine-2-carboxylic acid (4-{[(1 H-benzoimidazol-2-ylmethyl)-(5,6,7,8-tetrahydro-quinolin-8-yl)-amino]-methyl}-phenyl)-amide] came in with an EC50 in assay [1] of less than 20 µg/mL. Further, in assay [2], the inhibition at 20 µg/mL is greater than 20%.

Usually EC50 stands for the concentration that produces a half-maximal response. A higher EC50 goes with weaker potency. By inhibition is commonly meant the change of the read-out against control, counted positive when it falls. Lower therefore signals a weak effect.
